Results as given in US10179355B2, “Bioremediation enhancing agents and methods of use” (JRW BIOREMEDIATION, LLC, priority 2007, dated 2019).

Columns and labels:
[1] = tested on: dechlorinating bacteria known to convert PCE to ethene; assay: Set B: Efficiency of electron donor utilization by COD analysis; type: cell-based, Dehalococcoides and Dehalobacter spp.
Description: Sets B, C, D, E, and G further contain figures and tables showing results of the characterization of the Efficiency and the Relative Efficiency of electron donor usage. Efficiency may be defined as the percent of electron donor utilized for dechlorination, and may be calculated by dividing the pmoles of Chloride ion generated by the pmoles of electron donor consumed as measured by either Volatile Fatty Acid (VFA) analysis (Sets B, C, and G) or Chemical Oxygen Demand (COD) analysis (Set D and E). The Relative Efficiency of the electron donor utilization may be defined as the Efficiency of the Electron Donor divided by the Efficiency of the Lactate Control.
Table 10 and FIG. 9 show the efficiency of electron donor (e^−) utilization as measured by COD analysis. The COD analysis calculates the utilization of electron donor by measuring the starting COD and the final COD taking the difference and converting mg/L to pmoles of electrons. The pmoles of electrons used for dechlorination was determined from the calculated Chloride produced leading to an Efficiency and Relative Efficiency of electron donor utilization as compared to lactate.

[2] = tested on: dechlorinating bacteria known to convert PCE to ethene; assay: Set B: Erythorbate ML with and without YM2, PCE dechlorination microcosms (kinetics, Relative Rate); type: cell-based, Dehalococcoides and Dehalobacter spp.
Description: Certain contaminated materials (or sites) may contain indigenous microbial communities that are sufficient for complete bioremediation of contaminants. For such sites, there is no need to add microbes unless the indigenous microbes are genetically deficient in achieving the desired clean-up goals. For those sites that are microbiologically limited, microorganisms may be added to the contaminated materials (or sites). In one embodiment, the inoculum may be a mixed culture of halo-respiring bacteria that have been enriched to reach an optimal cell density. These mixed cultures of halo-respiring bacteria may be typically obtained from sediment samples from rivers, streams or any waterways. More specifically, the inoculum used in the Examples was originated from a Sangamon River sediment sample (Lodge Park, Piatt County, Ill.) See, e.g., Brennan, R. A., Sanford, R. A. and Werth, C. J. (2006). “Biodegradation of Tetrachloroethene by Chitin Fermentation Products in a Continuous Flow Column System.” Journal of Environ. Engr., June 665-673. This culture had grown for several years on PCE, anaerobic basal salts medium, Wolfe's vitamin solution and various electron donors including lactate (1-2 millimolar (mM)), formate (4 mM) and chitin using the Volatile Interface Transfer Apparatus (VITA) reactor system at the University of Illinois. Brennan, R. A., and Sanford, R. A. (2002). “Continuous steady-state method using Tenax for delivering tetrachloroethene to chlororespiring bacteria.” Appl. Environ. Microbiol., 68(3), 1464-1467. […] Using 16S rRNA gene-specific primers, both Dehalococcoides and Dehalobacter spp. were detected. Quantitative real-time PCR has been used to determine that approximately 1.65×10^7 Dehalococcoides gene copies were present per ml of culture.
For purpose of this disclosure, each bottle may be started with a certain amount of PCE. At subsequent times each bottle may be sampled for the degradation daughter products of PCE, namely trichloroethene (TCE), cis-dichloroethene (DCE), vinyl chloride (VC) and ethene, etc. Trans-DCE and 1,1-DCE are also daughter products of PCE, but they may not be detectable under the conditions disclosed here.
The rate of degradation may be determined by calculating the number of pmoles of chloride ions removed from PCE and subsequently from the amounts of the daughter products generated. The calculation may be performed as follows: Chloride (μmoles)=[…]−4×PCE (μmoles)−3×TCE (pmoles)−2×DCE (μmoles)−VC (μmoles)
Next, the dechlorination rate may be determined for each bottle at each time by dividing the Chloride generated by the time (days). The data may be then normalized to the lactate control by taking the ratio of Chloride Rate (pmoles/day) and the Lactate Control Chloride Rate (pmoles/day). This ratio is called Relative Rate and is dimensionless.
As shown in the Examples, a paired t-test has been conducted to calculate the probability that the Relative Rate of one group (i.e. with Nutrient) is greater than the other group (i.e. without Nutrient). The null hypothesis is that the underlying means of the two paired groups are equal. The Probability that one group has higher Relative Rates than the other group is shown in various tables in the Examples.
The following components were used in the system for bioremediating contaminated ground water microcosms in Examples 2-8: • 160 milliliter (ml) stoppered serum bottles • 100 ml of anaerobic culture medium, groundwater containing an excess of bioavailable phosphorus and nitrogen at 0.5 mM Phosphate and 1 mM ammonium degassed with a nitrogen sparge • Nominally 1 gram of limestone • 19.54 micromoles (pmoles) Perchloroethene (PCE) • An excess of various electron donors were utilized • 3 ml of inoculum containing dechlorinating bacteria known to convert PCE to ethene.
The second set of microcosms used Erythorbate ML as the electron donor at 1020 mg/L initial concentration. […]

CC(O)C(=O)[O-].[Na+] (stereo not shown) [Lactate Control, sodium lactate]
% of e^− used for dechlor. [1]: 13.1%
Chloride ([1]; Efficiency by COD analysis): 77.16 pmol
Relative Efficiency ([1]; relative to Lactate Control): 100%
Cl^− Rate ± s.d. ([2]; 0 days): 0.00 ± 0.00 µmol
Cl^− ± s.d. ([2]; 0 days): 0.00 ± 0.00 µmol
DCE ± s.d. ([2]; 0 days): 0.00 ± 0.00 µmol
Ethene ± s.d. ([2]; 0 days): 0.00 ± 0.00 µmol
PCE ± s.d. ([2]; 0 days): 19.54 ± 0.00 µmol
TCE ± s.d. ([2]; 0 days): 0.00 ± 0.00 µmol
VC ± s.d. ([2]; 0 days): 0.00 ± 0.00 µmol
Cl^− Rate ± s.d. ([2]; 21 days): 1.61 ± 0.14 µmol
Cl^− ± s.d. ([2]; 21 days): 33.88 ± 2.96 µmol
DCE ± s.d. ([2]; 21 days): 0.83 ± 0.07 µmol
Ethene ± s.d. ([2]; 21 days): 0.29 ± 0.08 µmol
PCE ± s.d. ([2]; 21 days): 7.22 ± 0.85 µmol
TCE ± s.d. ([2]; 21 days): 3.15 ± 0.11 µmol
VC ± s.d. ([2]; 21 days): 4.28 ± 0.44 µmol
Cl^− Rate ± s.d. ([2]; 35 days): 1.11 ± 0.12 µmol
Cl^− ± s.d. ([2]; 35 days): 39.00 ± 4.35 µmol
DCE ± s.d. ([2]; 35 days): 2.57 ± 0.34 µmol
Ethene ± s.d. ([2]; 35 days): 0.53 ± 0.12 µmol
PCE ± s.d. ([2]; 35 days): 3.58 ± 0.90 µmol
TCE ± s.d. ([2]; 35 days): 3.77 ± 0.18 µmol
VC ± s.d. ([2]; 35 days): 8.37 ± 0.37 µmol
Cl^− Rate ± s.d. ([2]; 49 days): 1.05 ± 0.04 µmol
Cl^− ± s.d. ([2]; 49 days): 51.67 ± 1.97 µmol
DCE ± s.d. ([2]; 49 days): 1.31 ± 0.95 µmol
Ethene ± s.d. ([2]; 49 days): 1.05 ± 0.22 µmol
PCE ± s.d. ([2]; 49 days): 0.04 ± 0.01 µmol
TCE ± s.d. ([2]; 49 days): 0.10 ± 0.03 µmol
VC ± s.d. ([2]; 49 days): 23.41 ± 0.34 µmol
